SMILES strings stand for the structures. Where two headings read alike, the source gives them in different places.

We go through 13 molecules from publication PMC3038857, “Using Nuclear Receptor Activity to Stratify Hepatocarcinogens” (PLoS ONE, 2011).

One series concerns LXRa (NR1H2). The series can be described thus: NCGC_LXR_Agonist: GAL4 BLAM Reporter gene assay: LXRa. The series is classed as cell-based, human. As to conditions: agonist mode. The procedure:
(§1) These assays measure binding constants and enzyme inhibition values for nuclear receptors. The targets include [drawing 67] , [drawing 68] , [drawing 69] , [drawing 70] , [drawing 71] , [drawing 72] , [drawing 73] , [drawing 74] , [drawing 75] and [drawing 76] . Each of the nuclear receptor targets was measured in agonist mode. Assays were run at the NIH Chemical Genomics Center (Rockville, MD).
(§2) Cell-based HTS Assays: These assays measuring binding constants and enzyme inhibition values for nuclear receptors. The targets include AR, ER, FXR, LXR, PPARα, PPARδ, PPARγ, RXRα, RXRβ and PXR. Each of the nuclear receptor targets was measured in both agonist and antagonist mode, but the antagonist data is still undergoing analysis due to possible interference between cytotoxicity and assay activity, so antagonist mode data were not used in the present analysis. Assays were run at the NIH Chemical Genomics Center (Rockville, MD) as part of the Tox21 collaboration. […] The R^2 was required to be ≥0.5. Values where only the highest concentration exceeded 50% activity were excluded to eliminate weak or false positives. Detailed description of the methods, data and analysis methods for this dataset will be presented in a separate publication.

For the next series, the target named is T1, RXRa (RXRA) (Homo sapiens, UniProt P19793).
T1 sequence (P19793 227-462 limits assumed): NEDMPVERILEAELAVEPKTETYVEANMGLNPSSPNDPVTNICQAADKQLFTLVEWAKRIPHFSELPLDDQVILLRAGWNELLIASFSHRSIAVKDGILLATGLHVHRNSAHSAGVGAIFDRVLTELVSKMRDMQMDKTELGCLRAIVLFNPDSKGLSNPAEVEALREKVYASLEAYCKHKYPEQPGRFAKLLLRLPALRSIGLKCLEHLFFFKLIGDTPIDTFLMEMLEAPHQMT
The series can be described thus: NCGC_RXRa_Agonist: GAL4 BLAM Reporter gene assay: RXRa. The series is classed as cell-based. The settings on record: agonist mode; scale not given, looks like -log10 of molar active concentration; 0 = no activity. As for the experimental part:
as §1, §2

The target of series [1] is T2, ESR1 (estrogen receptor 1) (Homo sapiens, UniProt P03372).
T2 construct: expressed in transfected cells; host or cells: HepG2
The series can be described thus: ATG_ERa_TRANS: Factorial reporter gene assay (HepG2). In kind it is cell-based. The method in brief: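 HepG2 cells transfected with multiplexed reporter libraries: cis-acting binding-site reporters (CIS) and a one-hybrid nuclear-receptor trans system (TRANS). Chemicals tested at seven concentrations, starting at the maximum tolerated concentration with three-fold serial dilutions.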
In general terms: A reporter such as luciferase makes a cellular process visible.

The target in the next series is T3, LXRb (NR1H2) (Homo sapiens, UniProt P55055).
T3 construct: expressed in transfected cells; host or cells: HepG2
T3 sequence (P55055 1-460): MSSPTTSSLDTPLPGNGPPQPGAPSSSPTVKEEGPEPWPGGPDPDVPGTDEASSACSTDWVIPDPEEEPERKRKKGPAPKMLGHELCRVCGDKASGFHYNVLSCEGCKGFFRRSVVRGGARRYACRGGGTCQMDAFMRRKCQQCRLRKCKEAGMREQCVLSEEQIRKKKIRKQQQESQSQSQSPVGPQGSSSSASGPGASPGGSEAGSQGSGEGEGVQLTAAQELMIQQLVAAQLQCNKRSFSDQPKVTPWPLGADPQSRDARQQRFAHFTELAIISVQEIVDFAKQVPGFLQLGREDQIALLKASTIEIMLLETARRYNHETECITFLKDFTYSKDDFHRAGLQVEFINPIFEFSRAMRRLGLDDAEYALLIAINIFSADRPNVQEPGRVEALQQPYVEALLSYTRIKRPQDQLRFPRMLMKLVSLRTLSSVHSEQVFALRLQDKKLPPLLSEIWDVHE
The series can be described thus: ATG_LXRb_TRANS: Factorial reporter gene assay (HepG2). The series is classed as cell-based. The procedure:
A multiple reporter transcription unit (MRTU) library consisting of 48 transcription factor binding sites was transfected into the HepG2 human liver hepatoma cell line. In addition to the cis-acting reporter genes (CIS), a modification of the approach was used to generate a trans-system (TRANS) with a mammalian one-hybrid assay consisting of an additional 25 MRTU library reporting the activity of nuclear receptor super-family members. […] These assays were performed by Attagene Inc. (Morrisville NC) under contract to EPA.
In addition to the cis-acting reporter genes (CIS), a modification of the approach was used to generate a trans-system (TRANS) with a mammalian one-hybrid assay consisting of an additional 25 MRTU library reporting the activity of nuclear receptor super-family members. […] Chemicals were then tested in the CIS and TRANS assays at seven concentrations starting at the MTC and followed by three-fold serial dilutions. These assays were performed by Attagene Inc. (Morrisville NC) under contract to EPA. Detailed description of the methods, data and analysis methods for this dataset will be presented in a separate publication.

The subject of a further series is CYP1A2. The series can be described thus: CLZD_CYP1A2: Change in expression of CYP1A2 (primary human hepatocytes). In kind it is cell-based. The settings on record: 24 hr. The method in brief: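 Primary human hepatocyte cultures were exposed to test chemicals at 5 concentrations (0.004-40 µM) for 6, 24 or 48 hr.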
A further series deals with Rat Liver. The settings on record: ref ToxRefDB, cited from earlier work.
The mark [2] stands for this setting: scale not given, looks like -log10 of molar active concentration, 0 = no activity.
Where [3] appears, read: HepG2, scale not given, looks like -log10 of molar active concentration, 0 = no activity.

T2 sequence (P03372 whole entry): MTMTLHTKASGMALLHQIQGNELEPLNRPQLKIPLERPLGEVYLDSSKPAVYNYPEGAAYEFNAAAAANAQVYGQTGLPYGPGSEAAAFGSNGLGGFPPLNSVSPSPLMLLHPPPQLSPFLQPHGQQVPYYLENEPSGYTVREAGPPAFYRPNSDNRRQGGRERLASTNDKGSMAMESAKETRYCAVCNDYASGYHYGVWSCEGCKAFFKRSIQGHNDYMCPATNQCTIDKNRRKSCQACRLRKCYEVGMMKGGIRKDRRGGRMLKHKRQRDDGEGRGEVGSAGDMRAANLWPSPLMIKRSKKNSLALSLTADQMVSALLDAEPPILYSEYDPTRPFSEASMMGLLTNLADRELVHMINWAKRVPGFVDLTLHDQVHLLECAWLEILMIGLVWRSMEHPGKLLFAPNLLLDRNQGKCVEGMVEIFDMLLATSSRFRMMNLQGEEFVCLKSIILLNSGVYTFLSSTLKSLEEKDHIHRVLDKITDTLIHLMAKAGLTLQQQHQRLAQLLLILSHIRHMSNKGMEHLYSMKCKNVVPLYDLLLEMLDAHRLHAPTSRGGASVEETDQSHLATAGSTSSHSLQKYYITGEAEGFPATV

Take `COc1cc(Cl)c(OC)cc1Cl` [r57]: in the series with LXRa (NR1H2) (setting [2]), the NCGC_LXR_Agonist is recorded as 0. The same molecule displayed an NCGC_RXRa_Agonist at RXRa (RXRA) of 0. The molecule further showed an ATG_ERa_TRANS in series [1] (setting [3]) of 0. The molecule further showed an ATG_LXRb_TRANS at LXRb (NR1H2) (setting [3]) of 0. Further, the CLZD_CYP1A2_24 in the series with CYP1A2 (setting [2]) came to 0.

As for `N#Cc1c(Cl)c(Cl)c(Cl)c(C#N)c1Cl` [r58], the NCGC_LXR_Agonist in the series with LXRa (NR1H2) (setting [2]) came to 0. At RXRa (RXRA), the NCGC_RXRa_Agonist is reported as 0. Also, the ATG_ERa_TRANS in series [1] (setting [3]) came out at 0. On LXRb (NR1H2) (setting [3]), the ATG_LXRb_TRANS came out at 0. The molecule also gave a CLZD_CYP1A2_24 with CYP1A2 (setting [2]) of 0.

`Cc1ccccc1CO[C@@H]1C[C@@]2(C(C)C)CC[C@]1(C)O2` [r64] gave an NCGC_LXR_Agonist in the series on LXRa (NR1H2) (setting [2]) of 0. The molecule also returned an NCGC_RXRa_Agonist at RXRa (RXRA) of 0. The CHR_Rat_Liver_2_PreneoplasticLesion in the series on Rat Liver (rat chronic study, liver, preneoplastic lesion, coded 6 / 0, code not explained here) was 0. Besides, the ATG_LXRb_TRANS at LXRb (NR1H2) (setting [3]) is reported as 0. The same molecule came in with a CLZD_CYP1A2_24 in the series with CYP1A2 (setting [2]) of 5.157.

`C#CCC1=C(C)[C@H](OC(=O)[C@H]2[C@H](C=C(C)C)C2(C)C)CC1=O` [r249] displayed an NCGC_LXR_Agonist in the series with LXRa (NR1H2) of 4.777. The CHR_Rat_Liver_2_PreneoplasticLesion in the series on Rat Liver (rat, chronic study) is reported as 0. The molecule also had a CLZD_CYP1A2_24 with CYP1A2 of 5.3.

For the molecule `CCCN(CCC)c1c([N+](=O)[O-])cc(C(F)(F)F)c(N)c1[N+](=O)[O-]` [r252], the CHR_Rat_Liver_2_PreneoplasticLesion in the series on Rat Liver (rat, chronic study) is recorded as 0. This molecule also came in with an ATG_ERa_TRANS in series [1] (HepG2) of 4.824. This molecule also yielded a CLZD_CYP1A2_24 in the series on CYP1A2 of 5.166.

In the case of `CSc1nc(NC(C)C)nc(NC(C)C)n1` [r256], in the series on Rat Liver (rat, chronic study), the CHR_Rat_Liver_2_PreneoplasticLesion is 0. For the same molecule, the CLZD_CYP1A2_24 with CYP1A2 came out at 5.251.

`CCCC1COC(Cn2cncn2)(c2ccc(Cl)cc2Cl)O1` (stereo not shown) [r262]: in the series with Rat Liver (rat, chronic study), the CHR_Rat_Liver_2_PreneoplasticLesion was 0. In the series on CYP1A2, this molecule had a CLZD_CYP1A2_24 of 5.229.

Consider `CC(C)=CC1C(C(=O)OCc2coc(Cc3ccccc3)c2)C1(C)C` (stereo not shown) [r280], for which the CHR_Rat_Liver_2_PreneoplasticLesion in the series with Rat Liver (chronic study, rat liver) is given as 6. In series [1] (HepG2 reporter), the ATG_ERa_TRANS was found to be 4.553.

For the molecule `CCc1ccc(C(=O)NN(C(=O)c2cc(C)cc(C)c2)C(C)(C)C)cc1` [r290], the CHR_Rat_Liver_2_PreneoplasticLesion in the series on Rat Liver (chronic study, rat liver) is on record as 0. In the series with CYP1A2, this molecule registered a CLZD_CYP1A2_24 of 4.896.

`CCc1nn(C)c(C(=O)NCc2ccc(C(C)(C)C)cc2)c1Cl` [r291]: the CHR_Rat_Liver_2_PreneoplasticLesion with Rat Liver (chronic study, rat liver) is 6. The ATG_LXRb_TRANS on LXRb (NR1H2) (HepG2 reporter) came out at 6.337.

In the case of `COc1cccc(C(=O)NN(C(=O)c2cc(C)cc(C)c2)C(C)(C)C)c1C` [row 202], the CHR_Rat_Liver_2_PreneoplasticLesion with Rat Liver (chronic rat study, liver) is given as 0. This molecule returned a CLZD_CYP1A2_24 with CYP1A2 of 4.924.

For the molecule `CCN(CC)C(=O)C(C)Oc1cccc2ccccc12` (stereo not shown) [row 219], the ATG_ERa_TRANS in series [1] (HepG2) is reported as 4.337. Also, the CLZD_CYP1A2_24 in the series with CYP1A2 amounted to 5.174.

Take `CC(C)Oc1cc(-n2nc(C(C)(C)C)oc2=O)c(Cl)cc1Cl` [row 225]: in the series on Rat Liver (chronic rat study, liver), the CHR_Rat_Liver_2_PreneoplasticLesion is 6. Further, the CLZD_CYP1A2_24 in the series on CYP1A2 was found to be 5.223.
